This is an account of results in patent US9580430B2, “9H-pyrimido[4,5-B]indoles and related analogs as BET bromodomain inhibitors” (THE REGENTS OF THE UNIVERSITY OF MICHIGAN, priority 2014, dated 2017).

Holding throughout (format): cell-based
The test system of one series is VCaP or LNCaP cells. Put plainly: Matrigel invasion assay, VCaP or LNCaP cells. As to conditions: 500 nM. The protocol:
Medium containing 10% FBS in the lower chamber served as chemoattractant. […] After 48 h, the non-invading cells and EC matrix were gently removed with a cotton swab and invasive cells located on the lower side of the chamber were stained with crystal violet, air dried, photographed and counted.

The subject of the next series is BRD2/3/4. The series can be described thus: ChIP-seq of BRD2/3/4 in VCaP cells. As to conditions: 500 nM, 12 h. The protocol:
(§1) The ChIP assays for BRD2, BRD3, BRD4, AR, RNA PolII, ERG and H3K27ac were performed using HighCell ChIP kit (Diagenode) according to manufacturer's protocol. […] Next, cells were cross-linked for 10 min. with 1% formaldehyde. […] Chromatin equivalent to 5×10^6 cells were used for ChIP using different antibodies. ChIP DNA was isolated (IPure Kit, Diagenode) from samples by incubation with the antibody at 4° C. overnight followed by wash and reversal of cross-linking. The ChIP-seq sample preparation for sequencing was performed according to the manufacturer's instructions (Illumina). […] A single A-base was added to fragment ends by Klenow fragment (3′ to 5′ exo minus; NEB) followed by ligation of Illumina adaptors (Quick ligase, NEB). The adaptor-modified DNA fragments were enriched by PCR using the Illumina Barcode primers and Phusion DNA polymerase (NEB). PCR products were size selected using 3% NuSieve agarose gels (Lonza) followed by gel extraction using QIAEX II reagents (QIAGEN). Libraries were quantified with the Bioanalyzer 2100 (Agilent) and sequenced on the Illumina HiSeq 2000 Sequencer (100 nucleotide read length).

The test system of a further series is AR. The series can be described thus: ChIP-seq of AR in DHT-stimulated VCaP cells. The following applies: DHT 10 nM plus JQ1 500 nM, MDV3100 10 μM or Bicalutamide 25 μM, FIG. 17. The protocol: as §1
(§2) For enrichment plots shown in FIGS. 17, 19 and 20, identified peaks for each sample are centered by peak summit and average coverage per million was counted within 1500 bp relative to the peak center.

For the next series, the system named is BRD4. The series can be described thus: ChIP-seq of BRD4 in DHT-stimulated VCaP cells. The following applies: JQ1 500 nM, FIG. 20. The protocol: as §1, §2
Series [1] concerns RWPE and PC3 cells overexpressing ERG. The series can be described thus: Matrigel invasion assay, RWPE and PC3 cells overexpressing ERG. The following applies: 500 nM. The protocol: Medium containing 10% FBS in the lower chamber served as chemoattractant. […] For colorimetric assays, the inserts were treated with 150 μl of 10% acetic acid and the absorbance measured at 560 nm using a spectrophotometer (GE Healthcare).

Series [2] has as its system MYC signature. The series can be described thus: Gene expression array, GSEA of MYC signature, VCaP. As to conditions: VCaP after JQ1 treatment. The protocol: (§3) Cells treated with only vehicle or 10 nM DHT served as controls. […] Expression profiling was performed using the Agilent Whole Human Genome Oligo Microarray (SantaClara, Calif.) according to the manufacturer's protocol. All samples were run in technical duplicates or quadruplets against control. Over- and under-expressed gene sets were generated by filtering to include only 2-fold average over- or underexpression (Log ratio with p<0.001) in all hybridizations.

Series [3] concerns MYC signature. The series can be described thus: Gene expression array, GSEA of MYC signature, LNCaP. As to conditions: LNCaP after JQ1 treatment. The protocol: as §3
Series [4] deals with MYC signature. Put plainly: Gene expression array, GSEA of MYC signature, DU145. The following applies: DU145 after JQ1 treatment. The protocol:
as §3

Setting [5] is: gene set SCHLOSSER_MYC_AND_SERUM_RESPONSE_SYNERGY.
The mark [6] stands for this setting: gene set SCHLOSSER_MYC_TARGETS_AND_SERUM_RESPONSE_UP.
[7] abbreviates: gene set SCHUHMACHER_MYC_TARGETS_UP.

Molecules are shown by their SMILES.

For the compound `Cc1sc2c(c1C)C(c1ccc(Cl)cc1)=N[C@@H](CC(=O)OC(C)(C)C)c1nnc(C)n1-2` [JQ1], the cell invasion result with VCaP or LNCaP cells is given as “inhibited invasion”. Moreover, the “recruitment of BRD2/3/4 to the chromatin” value in the series with BRD2/3/4 is “reduction in the recruitment”. Besides, the “recruitment of AR to target loci” value in the series with AR was “block AR recruitment to a level almost equivalent to MDV3100”. Moreover, the “DHT induced BRD4 recruitment to the AR-BRD4 shared loci” value in the series with BRD4 was “almost completely abrogated”. The ERG-mediated invasion result in series [1] is “attenuation of ERG-mediated invasion”. The NES in the series with MYC signature [2] (gene set MYC_UP.V1_UP) is −2.265; in the series on MYC signature [2] (setting [5]), −1.818; in the series on MYC signature [2] (setting [6]) it was −1.824; in the series on MYC signature [2] (setting [7]) it was −2.275; in the series on MYC signature [3] (gene set MYC_UP.V1_UP) it was −2.068; in the series on MYC signature [3] (setting [5]), −1.751. Further, the NES is −1.957 in the series on MYC signature [3] (setting [6]); −2.403 with MYC signature [3] (setting [7]); −0.952 in the series on MYC signature [4] (gene set MYC_UP.V1_UP); −1.085 in the series with MYC signature [4] (setting [5]); −0.734 with MYC signature [4] (setting [6]); −1.086 with MYC signature [4] (setting [7]).
